Molecular target: T1, Caspase-1 (Homo sapiens, UniProt P29466)
T1 sequence (P29466 whole entry): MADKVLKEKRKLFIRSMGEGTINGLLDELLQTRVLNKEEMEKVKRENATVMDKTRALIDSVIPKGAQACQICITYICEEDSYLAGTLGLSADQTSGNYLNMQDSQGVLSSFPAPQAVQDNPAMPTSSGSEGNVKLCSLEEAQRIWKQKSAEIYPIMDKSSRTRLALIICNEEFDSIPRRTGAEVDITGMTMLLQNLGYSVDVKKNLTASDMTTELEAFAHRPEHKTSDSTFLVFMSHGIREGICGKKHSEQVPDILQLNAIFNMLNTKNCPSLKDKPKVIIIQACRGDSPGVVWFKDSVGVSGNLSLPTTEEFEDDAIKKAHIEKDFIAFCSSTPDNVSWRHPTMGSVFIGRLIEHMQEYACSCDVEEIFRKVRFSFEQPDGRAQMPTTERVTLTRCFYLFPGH
Experiment: Inhibition of IL-1 beta converting enzyme (ICE) in human blood monocytes
Assay type: cell-based

SMILES | Ki [µM]
C=CCOC(=O)N[C@@H](CC(=O)O)C(=O)COC(=O)NCc1ccccc1 | 74
C=CCOC(=O)N[C@@H](CC(=O)O)C(=O)CNC(Cc1ccccc1)c1ccccc1 (stereo partly specified) | 70
C=CCOC(=O)N[C@@H](CC(=O)O)C(=O)CCCCc1ccccc1 | > 100
C=CCOC(=O)N[C@@H](CC(=O)O)C(=O)CNCCCc1ccccc1 | 67
CC(=O)N[C@@H](Cc1ccc(O)cc1)C(=O)N[C@H](C(=O)N[C@@H](C)C(=O)N[C@@H](CC(=O)O)C(=O)CCCCc1ccccc1)C(C)C | 42
C=CCOC(=O)N[C@@H](CC(=O)O)C(=O)COC(=O)CCOc1ccccc1 | 23
O=C(O)C[C@H](NC(=O)OCc1ccccc1)C(=O)COCCCc1ccccc1 | 24
C=CCOC(=O)N[C@@H](CC(=O)O)C(=O)CNCCc1ccccc1 | 4.4
C=CCOC(=O)N[C@@H](CC(=O)O)C(=O)CNCc1ccccc1 | > 100
C=CCOC(=O)N[C@@H](CC(=O)O)C(=O)CSCCCc1ccccc1 | 27
C=CCOC(=O)N[C@@H](CC(=O)O)C(=O)COC(=O)CCC1CCCCC1 | 3.5
C=CCOC(=O)N[C@@H](CC(=O)O)C(=O)CNC(c1ccccc1)c1ccccc1 | > 100
C=CCOC(=O)N[C@@H](CC(=O)O)C(=O)COC(=O)/C=C/c1ccccc1 | 90
C=CCOC(=O)N[C@@H](CC(=O)O)C(=O)CN(CCc1ccccc1)Cc1ccccc1 | 68
C=CCOC(=O)N[C@@H](CC(=O)O)C(=O)CN(C)CCc1ccccc1 | > 100
C=CCOC(=O)N[C@@H](CC(=O)O)C(=O)COC(=O)CCc1ccccc1 | 20
